Laboratory results published in patent US9199975B2, “Biaryl imidazole derivatives for regulating CYP17” (Asana Biosciences, LLC, priority 2011, dated 2015).

Columns and labels:
[1] = biological target: T1, human CYP17 (Homo sapiens, UniProt P05093); assay: CYP17 inhibition assay in yeast microsomes overexpressing human CYP17; assay type: biochemical; settings: yeast microsomes expressing human CYP17, 3H3-17α-hydroxypregnenolone substrate, 60 minutes at 37° C.
T1 sequence (P05093 1-508): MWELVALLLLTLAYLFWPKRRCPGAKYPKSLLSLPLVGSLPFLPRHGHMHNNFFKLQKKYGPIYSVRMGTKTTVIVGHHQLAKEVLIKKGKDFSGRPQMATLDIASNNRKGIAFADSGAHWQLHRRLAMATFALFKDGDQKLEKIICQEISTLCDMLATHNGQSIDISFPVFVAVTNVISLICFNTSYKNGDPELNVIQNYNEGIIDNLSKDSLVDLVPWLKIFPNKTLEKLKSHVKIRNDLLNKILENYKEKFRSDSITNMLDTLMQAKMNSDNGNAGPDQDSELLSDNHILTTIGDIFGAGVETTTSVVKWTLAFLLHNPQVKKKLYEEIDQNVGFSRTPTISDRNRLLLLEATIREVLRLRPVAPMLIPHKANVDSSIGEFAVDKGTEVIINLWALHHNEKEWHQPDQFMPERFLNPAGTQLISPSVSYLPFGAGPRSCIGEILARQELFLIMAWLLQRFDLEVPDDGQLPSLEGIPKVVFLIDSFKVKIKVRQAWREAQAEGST
Protocol: (§1) CYP17 Inhibition Assay in Rat Testicular Microsomes (Rat CYP17) or Yeast Microsome Overexpressing Human CYP17
(§2) A. Materials • 1. NADPH (Sigma): A working stock was prepared by adding 25 μL of 6.5 mM NADPH in each tube. The final concentration of NADPH used in the assay was 325 μM. • 2. Potassium Phosphate Buffer: One molar (1M) solutions of K2HPO4 and KH2PO4 were prepared. Eight mL of the 1 M KH2PO4 and 1.98 mL of the 1 M K2HPO4 were combined and the pH was adjusted to 7.4. • 3. ^3H3-17α-hydroxypregnenolone (American Radiolabeled Chemicals, Inc., stock 1 μCi/μL): A 1:1 dilution of ^3H3-17α-hydroxypregnenolone in ethanol was prepared by combining 100 μL ^3H3-17α-hydroxypregnenolone+100 μL ethanol for one complete 96 well plate. For the reaction, 2 μL of the diluted ^3H3-17α-hydroxypregnenolone was added in each tube, i.e., 1 μCi/reaction. • 4. Microsome Isolation Buffer: The microsome isolation buffer was prepared by combining 250 mM Sucrose, 5 mM EDTA, 10 mM Tris HCl, 4 mM DTT, and adjusting to pH 7.4. • 5. TEG Buffer: The TEG buffer was prepared by combining 50 mM Tris HCl, 1 mM EDTA, and 20% Glycerol. • 6. Rat Testicular Microsomes: Rat testis tissue was collected and disrupted with 30 strokes of a glass homogenizer on ice with 250 μL of microsome isolation buffer, followed by centrifugation at 10,000 g for 10 minutes at 4° C. The supernatant was collected and centrifuged at 100,000 g for 45 minutes at 4° C. The pellet was dissolved in TEG Buffer and the protein was quantified. The homogenized microsome samples were then frozen at −80° C. • 7. Yeast Microsomes which overexpress the human CYP17 enzyme were obtained from Premas Biotech, India.
(§3) Potassium phosphate buffer (470 μL) was prepared as described above and was added to each well of a deep well plate. The test compound was diluted using a TECAN liquid handler and 5 μL of diluted compound was transferred to each well (96 deep well/1 mL). A solution (25 μL) of 6.5 mM NADPH was added (final concentration of 325 µM in the assay). ^3H3-17α-hydroxypregnenolone (2 μL of the working stock) was added to each tube. The plates were then pre-incubated for 15 minutes at 37° C. Following the pre-incubation, either 5 μL rat testicular microsomes (150-160 μg) or 5 μL of yeast microsomes expressing human CYP17 (1.7 pmol), was added. Incubation was at 37° C. for 60 minutes in the presence of oxygen. The plates were then placed in ice and chloroform (500 μL) was added, mixed well and incubated at 4° C. for 20 minutes. The plates were then centrifuged at 1000 rpm for 15 minutes at 4° C.
(§4) A portion (300 μL) of the aqueous solution was collected and mixed with a 5% aqueous suspension of activated charcoal (300 μL). The plates were then incubated at 4° C. for 30 minutes, after which the plates were centrifuged at 1000 rpm for 15 minutes at 4° C. From this, 125 μL of the aqueous solution was collected and plated into a 96 well plate. Microscint™ 40 [125 μL, Perkin-Elmer; containing a mixture of a polymer based on alkylphenolethoxylate (20-40%), diethanolamine-phosphoric acid ester ammonium salt (10-20%), sodium dioctyl sulphosuccinate (2.5-10%), triethyl phosphate (2.5-10%), 3,6-dimethyl-4-octyne-3,6-diol (≦2.5%), a polymer based on nonylphenolethoxylate (≦2.5%), diisopropyl naphthalene isomers (40-60%), 2,5-diphenyloxazole (≦2.5%), and 9,10-dimethylanthracene] was added and mixed well. After 30 minutes of incubation, the samples were analyzed with a MicroBeta® Trilux microplate liquid scintillation counter and luminometer (Perkin-Elmer).

[2] = biological target: T2, rat CYP17 (Rattus norvegicus, UniProt P11715); assay: CYP17 inhibition assay in rat testicular microsomes; assay type: biochemical; settings: 3H3-17α-hydroxypregnenolone substrate, 60 minutes at 37° C.
T2 construct: Rat testis tissue was collected and disrupted with 30 strokes of a glass homogenizer; from tissue; host or cells: rat testis (microsomal fraction)
T2 sequence (P11715 1-507): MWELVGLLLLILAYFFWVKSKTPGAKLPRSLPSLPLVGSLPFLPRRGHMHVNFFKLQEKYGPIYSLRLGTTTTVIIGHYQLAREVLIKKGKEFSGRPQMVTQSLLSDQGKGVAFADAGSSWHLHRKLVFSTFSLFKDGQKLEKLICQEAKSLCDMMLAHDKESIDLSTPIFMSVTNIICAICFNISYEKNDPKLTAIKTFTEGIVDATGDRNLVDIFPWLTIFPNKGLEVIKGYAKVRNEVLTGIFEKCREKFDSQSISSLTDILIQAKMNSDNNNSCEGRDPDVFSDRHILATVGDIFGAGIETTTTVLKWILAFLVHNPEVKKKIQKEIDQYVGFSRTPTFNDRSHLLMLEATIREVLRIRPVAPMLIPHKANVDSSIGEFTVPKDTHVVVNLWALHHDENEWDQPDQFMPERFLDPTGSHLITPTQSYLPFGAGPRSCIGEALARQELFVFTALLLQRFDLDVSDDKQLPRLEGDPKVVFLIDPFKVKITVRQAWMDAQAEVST
Protocol: as §1, §2, §3, §4

Row | Compound | IC50 [1] [nM] | IC50 [2] [nM]
1 | CC(c1cnc(-c2ccc(F)cc2F)s1)n1ccnc1 (stereo not shown) [Example 28, 2-(2,4-Difluoro-phenyl)-5-(1-imidazol-1-yl-ethyl)-thiazole] | 50 to 200 | < 50
2 | CCC(c1ccc(-c2ccc(O)cc2)o1)n1ccnc1 (stereo not shown) [Example 30, 4-[5-(1-Imidazol-1-yl-propyl)-furan-2-yl]-phenol] | < 50 | < 50
3 | CCC(c1cccc(-c2ccc(OC)cc2)n1)n1ccnc1 (stereo not shown) [Example 38, 2-(1-Imidazol-1-yl-propyl)-6-(4-methoxy-phenyl) pyridine] | 201 to 10000 | < 50
4 | CCC(c1ccc(-c2cccc(O)c2)cn1)n1ccnc1 (stereo not shown) [Example 8, 3-(6-(1-(1H-imidazol-1-yl)propyl)pyridin-3-yl)phenol] | < 50 | < 50
5 | COc1ccc(-c2ccc(C(C)(C)n3ccnc3)s2)cc1 [Example 24, 1-(2-(5-(4-methoxyphenyl)-thiophen-2-yl)-propan-2-yl)-1H-imidazole] | 50 to 200 | < 50
6 | CCC(c1ccc(-c2ccc(OC)cc2)cn1)n1ccnc1 (stereo not shown) [Example 47, 2-(1-Imidazol-1-yl-propyl)-5-(4-methoxy-phenyl)-pyridine] | 201 to 10000 | < 50
7 | CCC(c1ccc(-c2ccc(OC)cc2)o1)n1ccnc1 (stereo not shown) [Example 27, 1-{1-[5-(4-Methoxy-phenyl)-furan-2-y]-propyl}-1H-imidazole] | < 50 | < 50
8 | CCC(c1ccc(-c2ccc(C#N)cc2)cn1)n1ccnc1 (stereo not shown) [Example 17, 4-[6-(1-Imidazol-1-yl-propyl)-pyridin-3-yl]-benzonitrile] |  | < 50
9 | CC(c1cnc(-c2ccc(C(=O)O)cc2)s1)n1ccnc1 (stereo not shown) [Example 65, 4-[5-(1-Imidazol-1-yl-ethyl)-thiazol-2-yl]-benzoic acid] |  | 201 to 10000
10 | CC(c1cnc(-c2ccc(C#N)cc2)s1)n1ccnc1 (stereo not shown) [Example 22, 4-(5-(1-(1H-imidazol-1-yl)ethyl)thiazol-2-yl)benzonitrile] |  | < 50
11 | CCC(c1cnc(-c2ccc(F)cc2)s1)n1ccnc1 (stereo not shown) [Example 33, 2-(4-Fluoro-phenyl)-5-(1-imidazol-1-yl-propyl)-thiazole] |  | < 50
12 | CCC(c1ccc(-c2ccc(C(N)=O)cc2)cn1)n1ccnc1 (stereo not shown) [Example 10, 4-(6-(1-(1H-imidazol-1-yl)propyl)pyridin-3-yl)benzamide] |  | < 50
13 | COc1ccc(-c2ccc(C(CC(C)C)n3ccnc3)nc2)cc1 (stereo not shown) [Example 62, 2-(1-Imidazol-1-yl-3-methyl-butyl)-5-(4-methoxy-phenyl)-pyridine] |  | 50 to 200
14 | COc1ccc(-c2ccc(C(C)(C)n3ccnc3)nc2)cc1 [Example 61, 2-(1-Imidazol-1-yl-1-methyl-ethyl)-5-(4-methoxy-phenyl)-pyridine] |  | 50 to 200
15 | CC(c1ccc(-c2ccc(F)cc2)nc1)n1ccnc1 (stereo not shown) [Example 54, 2-(4-Fluoro-phenyl)-5-(1-imidazol-1-yl-ethyl)-pyridine] |  | < 50
16 | CC(c1ccc(-c2cccc(F)c2)cn1)n1ccnc1 (stereo not shown) [Example 57, 5-(3-Fluoro-phenyl)-2-(1-imidazol-1-yl-ethyl)-pyridine] |  | < 50
17 | CCc1cc(F)ccc1-c1ncc(C(CC)n2ccnc2)s1 (stereo not shown) [Example 46, 2-(2-Ethyl-4-fluoro-phenyl)-5-(1-imidazol-1-yl-propyl)-thiazole] |  | < 50
18 | COc1ccc(-c2cccnc2C(C)n2ccnc2)cc1 (stereo not shown) [Example 66, 2-(1-(1H-imidazol-1-yl)ethyl)-3-(4-methoxyphenyl)-pyridine] |  | 50 to 200
19 | CC(C)(c1ccc(-c2ccc(O)cc2)cn1)n1ccnc1 [Example 52, 4-[6-(1-Imidazol-1-yl-1-methyl-ethyl)-pyridin-3-yl]-phenol] |  | < 50
20 | CCC(c1ccc(-c2ccccc2F)cn1)n1ccnc1 (stereo not shown) [Example 48, 5-(2-Fluoro-phenyl)-2-(1-imidazol-1-yl-propyl)-pyridine] |  | < 50
21 | CCOC(=O)c1ccc(-c2ncc(C(C)n3ccnc3)s2)cc1 (stereo not shown) [Example 55, 4-[5-(1-Imidazol-1-yl-ethyl)-thiazol-2-yl]-benzoic acid ethyl ester] |  | < 50
